Measured values reported in patent US6943190B2, “Method of using pyruvate and/or its derivatives for the treatment of cytokine-mediated inflammatory conditions” (University of Pittsburgh-of the Commonwealth System of …, priority 2001, dated 2005).

Experiments:
NF-B = test: LPS-induced NF-kB activation in RAW264.7 cells (EMSA); assay type: cell-based, murine; conditions: EMSA at 15 minutes and 4 hours after LPS
Procedure: (§1) Cell Culture. BALB/c murine macrophage-like RAW 264.7 cells obtained from the American Type Culture Collection (ATCC Number TIB-71, ATCC, Rockville, Mass.) (61), were cultured in RPMI 1640 (Life Technologies, Grand Island, N.Y.) supplemented with 10% heat inactivated fetal bovine serum (Gemini, Calabasas, Calif.), 2 mM glutamine (Cat. # 25030-149, Gibco BRL, Rockville, Mass.) and antibiotic-antimycotic mix (Cat. # 15240-062, Gibco BRL, Rockville, Mass.) in a humidified incubator with 5% CO2. Cells were mechanically removed and resuspended in serum-free Opti-MEM I medium (Life Technology, Grand Island, N.Y.) to perform experiments at 75% confluence.
Nuclear extract preparation. The day before use, cells were plated at a density of 1×10^6 per well in 6 well tissue culture plates. After stimulation at indicated times, cells were removed from the incubator and place on ice immediately. Cells were washed once with 2 ml phosphate buffered saline (PBS) then harvested in 1 ml of PBS containing 2% FBS using rubber scrapper. […] The supernatant was transferred to a new tube, protein concentration was determined using a commercially available Bradford assay (Bio-Rad Protein Assay, Hercules, Calif.). […]

HMGB-1 = HMGB-1 release from LPS-stimulated RAW264.7 macrophage cultures (western blot); assay type: cell-based, murine
Procedure: as §1
Cytokine measurements. TNF concentration in mouse serum and in conditioned media from RAW 264.7 cell cultures was measured by ELISA (minimum detectable concentration=10 pg/ml). […] Mouse serum IL-6 and IL-1β levels were measured using ELISA kits (R&D Systems, Inc., Minneapolis, Minn.). HMGB-1 was analyzed by western blot as previously described by Wang et al, 1999. […] Protein was electroblotting to Immun-blot PVDF membrane (Bio-rad, Hercules Calif.) and HMGB-1 was analyzed using polyclonal 241 antibody and secondary anti-rabbit horseradish peroxidase (Amersham, Pitscataway, N.J.). Standard curves were constructed using r-HMGB-1, and the intensity of the 30 kD band analyzed by densitometry. […]

CCOC(=O)C(C)=O [ethyl pyruvate]
LPS-induced activation of NF-B (NF-B): significantly prevented LPS-induced activation of NF-B signaling in a concentration dependent fashion
total intracellular (cell associated) HMGB1 protein concentration (HMGB-1; RAW264.7 cells treated with 1, 5 or 10 mM, 10 or 20 h): did not significantly influence total intracellular HMGB1 protein concentration
LPS-induced HMGB-1 release (HMGB-1; conditioned media, overnight (24 hrs) endotoxin exposure): significantly prevented LPS-induced HMGB-1 release in a concentration dependent manner
